# Results: patent US9326955B2, “Combination pharmaceuticals and methods thereof using proteinacious channels as treatments for medical conditions” (Loyola University Chicago, priority 2008, dated 2016)
# Entries after “also recorded” stand apart in the source; their conditions may differ. Like-named read-outs stand apart in the source and are kept apart here.
# Assays:
# [1] = tested on: vascular Kv7 channels; experiment: Electrophysiology of Kv7 currents in vascular smooth muscle cells; format: cell-based, rat and human; settings: for effect on vascular Kv7 channels: vascular smooth muscle cells
# Method: The scope of the present invention further encompasses the tools used to measure vascular Kv7 channel activities and/or functional contributions of these channels in vascular smooth muscle cells. […] For example, flupirtine is a known Kv7 channel activator used to treat pain; plasma concentrations achieved clinically can be as high as about 12 μM with a 100 mg dose (Abrams et al., “Pharmacokinetics of flupirtine in elderly volunteers and in patients with moderate renal impairment,” Postgraduate Medical Journal, 64: 361-363 (1988)) and doses up to about 600 mg are routinely given to treat chronic pain. […] Further indications to support such predictions may be obtained by measuring the effects of drugs on constriction/dilation of pressurized arteries.
# [2] = tested on: KCNQ channels; experiment: Patch-clamp of KCNQ currents in rat airway myocytes (ASMCs); format: cell-based
# Method: An investigation relating to these aspects of the invention was conducted to determine whether KCNQ (Kv7) K^+ channels are expressed and functional in rat airway myocytes. To accomplish this, a combination of real time polymerase chain reaction (RT-PCR) and patch-clamp electrophysiology was used. Isolation of rat ASMCs from bronchial strips for the patch-clamp electrophysiology as well as RNA isolation from rat trachea for the RT-PCR were performed using methods as described in Brueggemann et al., “KCNQ (Kv7) potassium channel activators as bronchodilators: combination with a β2-adrenergic agonist enhances relaxation of rat airways,” Am J Physiol Lung Cell Mol Physiol (in press), incorporated herein by reference.
# Therefore K^+ currents in enzymatically dispersed rat airway myocytes were measured using patch-clamp electrophysiology.
# After 10 minutes of MeCh treatment, the time course recording was interrupted for 10 minutes for measurement of steady-state I-V relationship (time break indicated by vertical gray lines). Then, after an additional one minute recording at −20 mV holding voltage, retigabine (10 μM) was applied in the presence of MeCh for 5 minutes. The time course recording was interrupted again for ten minutes for measurement of steady-state I-V relationship and, after an additional one minute time course recording, XE991 (1 μM) was applied in the presence of MeCh and retigabine for ten minutes.
# The investigation examined whether the bronchorelaxant effects of long-acting β2-adrenergic receptor agonist, formoterol, were mediated via activation of KCNQ channels in rat airway myocytes. […] The time course recording was interrupted for 10 minutes for measurement of steady-state I-V relationship (time break indicated by vertical gray lines). After an additional 5 minutes recording, retigabine (10 μM) was applied in the continued presence of formoterol. The time course recording was interrupted again for 10 minutes for recording of steady-state I-V curves, and, after an additional 5 minutes recording, XE991 (1 μM) was applied in the presence of retigabine.
# [3] = tested on: rat bronchioles in precision-cut lung slices (PCLS); experiment: Airway constriction/relaxation in rat precision-cut lung slices (PCLS); settings: for bronchorelaxant action when XE991 is included: with XE991 10 μM
# Method: Another investigation was performed to investigate the ability of KCNQ channel activators to attenuate MeCh-induced concentration-dependent constriction of rat bronchioles in precision-cut lung slices (PCLS). The PCLS were prepared using methods described by Brueggemann et al., “KCNQ (Kv7) potassium channel activators as bronchodilators: combination with a β2-adrenergic agonist enhances relaxation of rat airways,” Am J Physiol Lung Cell Mol Physiol (in press). PCLS were superfused with increasing concentrations of MeCh in the range from 100 nM to 1 μM. Each concentration was applied for thirty minutes, followed by a forty-five minute washout prior to application of the next MeCh concentration (FIG. 12A,B). […] Percent of airway constriction, relative to the cross-sectional area measured before the initial MeCh treatment, was calculated for each MeCh concentration and plotted against concentration of MeCh.
# Bronchorelaxant effects were further assessed by measuring the extent of bronchoconstriction when MeCh was applied in the absence or presence of different structurally unrelated KCNQ channel activators (or vehicle).
# FIG. 13C is a representative time course of changes in lumenal area of a small airway in rat PCLS on application of 230 nM MeCh (thirty minutes) followed by application of 230 nM MeCh in the presence of 10 nM formoterol (FF, thirty minutes). Dashed vertical lines marked “max” and “final” indicate 1 minute time intervals where the maximum or final relaxation was measured relative to the MeCh-induced constriction (measured during the last minute of MeCh alone). FIG. 13D is a representative time course of changes in lumenal area of a small airway treated as in panel C, except that 10 μM retigabine was included with the formoterol treatment (“FF+R,” thirty minutes).
# The amount of desensitization for each concentration of formoterol in the absence and presence of 10 μM retigabine was estimated by subtraction of final relaxation (after thirty-minute treatment) from maximal relaxation.
# To further investigate the desensitization to formoterol in rat PCLS, formoterol (10 nM) was applied twice, at a 90 minute interval, to airways constricted repetitively with 230 nM MeCh.
# [4] = compared with celecoxib; cited from earlier work
# [5] = target: vascular L-type Ca^2+ channels (Homo sapiens, UniProt Q13936); settings: vascular smooth muscle cells
# Method: The activities were measured for two types of ion channels that are perhaps the most important in determining the contractile state of vascular smooth muscle cells: potassium (K^+) channels, which determine the resting membrane voltage, and voltage-sensitive calcium (Ca^2+) channels (VSCC), the activation of which allows Ca^2+ influx and vasoconstriction. […] The actions of these drugs can be assessed at the level of isolated arterial myocytes and intact pressurized arteries.
# [6] = tested on: Kv7 channels; experiment: Perforated patch clamp of Kv7 currents in freshly isolated guinea pig ASMCs; format: cell-based
# Method: Another investigation relating to this aspect of the invention was directed to investigating Kv7 currents in freshly dissociated guinea pig ASMCs. […] 197-218 (1992), ASMCs were isolated from guinea pig bronchioles by enzymatic digestion and whole cell perforated patch clamp electrophysiology was used to record Kv7 currents. Kv7 currents were recorded in isolation from other ionic currents by including 100 μM gadolinium chloride in the external solution and applying relatively long (about five second) voltage steps, during which many other classes of channels inactivate.
# [7] = randomized clinical trials / clinical studies; cited from earlier work
# [8] = 100 mg dose; cited from earlier work
# [9] = tested on: human PCLS; experiment: Airway relaxation in human PCLS from an asthmatic lung; settings: 30 pM alone, thirty-minute treatment (H1+F)
# Excerpt: FIG. 15A is a representative recording of airway area from a PCLS derived from an asthmatic human lung.
# [10] = tested on: Sprague-Dawley rats; experiment: Mean arterial pressure and mesenteric vascular resistance in anesthetized instrumented rats; format: in vivo, rat
# [11] = tested on: ovalbumin-sensitized guinea pigs; experiment: Aerosolized ovalbumin challenge with inhaled retigabine in guinea pigs; settings: thirty-minute exposure with ovalbumin, doses up to 1 mM
# Method: To assess the feasibility of inhalational therapy with a Kv7 channel activator, an investigation was conducted to assess the ability of retigabine to exert a therapeutic anti-bronchospastic benefit in vivo. […] This model involves a series of three intraperitoneal injections of ovalbumin (OA) or saline (as control) over a one week period, followed by a two-week sensitization period, and finally challenge with aerosolized ovalbumin.
# In the investigation, two saline-control and two ovalbumin-sensitized animals were exposed to aerosolized ovalbumin on three consecutive days, but in this case the ovalbumin treatment was administered with varying doses of retigabine on consecutive days.
# [12] = 10 nM, 230 nM MeCh (FIG. 14A,C)
# [13] = 10 nM, 90 minute interval (FIG. 14A,C)
# [14] = formoterol 10 nM alone (FIG. 14B,D)
# vascular L-type Ca^2+ channels, sequence (Q13936 whole entry): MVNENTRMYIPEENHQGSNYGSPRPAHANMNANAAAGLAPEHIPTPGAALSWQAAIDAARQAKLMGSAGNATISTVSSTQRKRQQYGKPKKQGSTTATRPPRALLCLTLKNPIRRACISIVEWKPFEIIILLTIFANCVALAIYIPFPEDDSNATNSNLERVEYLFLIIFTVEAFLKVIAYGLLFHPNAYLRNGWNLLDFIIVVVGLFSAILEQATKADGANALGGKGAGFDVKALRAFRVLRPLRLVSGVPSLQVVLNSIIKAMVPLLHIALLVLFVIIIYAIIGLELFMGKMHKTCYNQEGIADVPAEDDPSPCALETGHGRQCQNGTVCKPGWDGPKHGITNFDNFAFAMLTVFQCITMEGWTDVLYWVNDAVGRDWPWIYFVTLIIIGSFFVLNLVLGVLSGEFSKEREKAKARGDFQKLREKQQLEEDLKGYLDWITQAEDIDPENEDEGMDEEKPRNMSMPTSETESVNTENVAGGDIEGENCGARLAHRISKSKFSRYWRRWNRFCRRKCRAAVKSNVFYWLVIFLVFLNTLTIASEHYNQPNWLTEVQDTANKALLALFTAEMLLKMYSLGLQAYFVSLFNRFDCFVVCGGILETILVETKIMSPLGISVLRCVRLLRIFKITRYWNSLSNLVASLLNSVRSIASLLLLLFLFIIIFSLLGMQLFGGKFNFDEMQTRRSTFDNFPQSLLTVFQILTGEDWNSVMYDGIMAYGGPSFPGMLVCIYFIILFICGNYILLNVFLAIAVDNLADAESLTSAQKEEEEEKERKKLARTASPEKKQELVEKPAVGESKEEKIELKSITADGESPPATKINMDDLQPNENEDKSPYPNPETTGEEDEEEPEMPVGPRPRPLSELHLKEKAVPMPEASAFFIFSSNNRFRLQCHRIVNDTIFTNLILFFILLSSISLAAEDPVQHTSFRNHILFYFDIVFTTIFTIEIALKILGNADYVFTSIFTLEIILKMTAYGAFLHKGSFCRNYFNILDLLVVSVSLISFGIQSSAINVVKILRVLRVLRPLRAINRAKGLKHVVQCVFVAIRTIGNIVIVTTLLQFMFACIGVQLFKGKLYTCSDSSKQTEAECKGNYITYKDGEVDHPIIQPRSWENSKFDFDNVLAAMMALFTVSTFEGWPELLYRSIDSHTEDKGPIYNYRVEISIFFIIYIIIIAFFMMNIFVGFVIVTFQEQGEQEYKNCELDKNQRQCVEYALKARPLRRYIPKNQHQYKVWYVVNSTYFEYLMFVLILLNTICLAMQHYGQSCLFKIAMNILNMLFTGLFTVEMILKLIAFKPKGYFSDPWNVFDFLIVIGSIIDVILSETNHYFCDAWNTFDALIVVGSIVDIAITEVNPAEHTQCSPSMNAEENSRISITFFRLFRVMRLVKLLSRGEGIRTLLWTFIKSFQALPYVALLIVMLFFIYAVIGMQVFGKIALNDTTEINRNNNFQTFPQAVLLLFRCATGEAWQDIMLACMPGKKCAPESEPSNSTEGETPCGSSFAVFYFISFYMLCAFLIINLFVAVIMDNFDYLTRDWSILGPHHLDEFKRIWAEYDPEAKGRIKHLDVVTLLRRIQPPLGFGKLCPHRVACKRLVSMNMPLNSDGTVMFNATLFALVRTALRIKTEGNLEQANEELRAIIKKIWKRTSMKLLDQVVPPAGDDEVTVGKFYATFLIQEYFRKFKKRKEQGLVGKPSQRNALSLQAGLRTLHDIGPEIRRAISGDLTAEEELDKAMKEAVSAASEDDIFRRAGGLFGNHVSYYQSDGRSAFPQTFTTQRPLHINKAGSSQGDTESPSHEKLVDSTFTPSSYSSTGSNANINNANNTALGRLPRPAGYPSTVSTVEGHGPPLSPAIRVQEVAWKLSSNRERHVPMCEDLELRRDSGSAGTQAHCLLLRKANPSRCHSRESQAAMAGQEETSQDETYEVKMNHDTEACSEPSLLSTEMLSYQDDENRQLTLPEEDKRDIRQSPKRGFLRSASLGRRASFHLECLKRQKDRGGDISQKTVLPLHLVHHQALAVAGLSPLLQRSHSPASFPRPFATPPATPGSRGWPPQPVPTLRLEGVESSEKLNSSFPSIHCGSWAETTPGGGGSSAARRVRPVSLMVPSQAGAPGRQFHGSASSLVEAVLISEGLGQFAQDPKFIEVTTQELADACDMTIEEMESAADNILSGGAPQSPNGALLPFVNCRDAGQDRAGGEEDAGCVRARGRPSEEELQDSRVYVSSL
# vascular L-type Ca^2+ channels, sequence (P54284 whole entry partner): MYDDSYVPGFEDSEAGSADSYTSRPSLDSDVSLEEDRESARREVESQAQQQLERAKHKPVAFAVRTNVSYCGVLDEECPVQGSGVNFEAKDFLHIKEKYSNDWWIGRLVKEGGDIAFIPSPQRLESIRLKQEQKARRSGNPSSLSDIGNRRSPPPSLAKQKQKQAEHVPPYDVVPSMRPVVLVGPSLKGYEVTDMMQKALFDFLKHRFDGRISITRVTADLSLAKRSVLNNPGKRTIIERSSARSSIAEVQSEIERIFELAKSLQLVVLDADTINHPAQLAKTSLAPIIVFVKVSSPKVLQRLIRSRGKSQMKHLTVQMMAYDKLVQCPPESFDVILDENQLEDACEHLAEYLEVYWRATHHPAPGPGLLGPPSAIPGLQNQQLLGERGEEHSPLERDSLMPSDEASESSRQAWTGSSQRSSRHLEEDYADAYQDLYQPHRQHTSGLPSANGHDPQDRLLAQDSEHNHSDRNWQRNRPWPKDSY
# vascular L-type Ca^2+ channels, sequence (P54289 25-956 partner limits assumed): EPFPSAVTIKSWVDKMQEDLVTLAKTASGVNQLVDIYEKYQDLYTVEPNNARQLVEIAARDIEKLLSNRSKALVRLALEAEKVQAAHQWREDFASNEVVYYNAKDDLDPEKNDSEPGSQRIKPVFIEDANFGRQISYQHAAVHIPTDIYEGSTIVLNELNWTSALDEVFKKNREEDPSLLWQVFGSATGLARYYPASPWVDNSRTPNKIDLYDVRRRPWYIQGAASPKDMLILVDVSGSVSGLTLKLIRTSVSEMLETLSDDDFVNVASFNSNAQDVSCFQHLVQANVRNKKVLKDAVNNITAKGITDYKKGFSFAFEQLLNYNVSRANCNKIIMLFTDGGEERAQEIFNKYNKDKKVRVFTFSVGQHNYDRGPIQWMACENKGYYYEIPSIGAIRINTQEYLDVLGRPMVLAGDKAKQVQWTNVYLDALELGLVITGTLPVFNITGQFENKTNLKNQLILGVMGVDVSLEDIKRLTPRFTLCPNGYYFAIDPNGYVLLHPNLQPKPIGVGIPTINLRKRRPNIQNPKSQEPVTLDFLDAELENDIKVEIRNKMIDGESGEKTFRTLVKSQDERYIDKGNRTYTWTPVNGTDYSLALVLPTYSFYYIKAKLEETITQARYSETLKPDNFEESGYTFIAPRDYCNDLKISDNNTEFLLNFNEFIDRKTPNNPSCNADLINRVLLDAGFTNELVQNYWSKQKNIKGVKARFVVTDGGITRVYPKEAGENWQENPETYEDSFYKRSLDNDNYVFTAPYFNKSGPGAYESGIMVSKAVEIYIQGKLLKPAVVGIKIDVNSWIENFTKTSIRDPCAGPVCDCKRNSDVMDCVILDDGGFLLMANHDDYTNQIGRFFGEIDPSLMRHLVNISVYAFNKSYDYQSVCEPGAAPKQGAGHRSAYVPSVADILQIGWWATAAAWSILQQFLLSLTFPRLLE
# vascular L-type Ca^2+ channels, sequence (P54289 957-1103 partner limits assumed): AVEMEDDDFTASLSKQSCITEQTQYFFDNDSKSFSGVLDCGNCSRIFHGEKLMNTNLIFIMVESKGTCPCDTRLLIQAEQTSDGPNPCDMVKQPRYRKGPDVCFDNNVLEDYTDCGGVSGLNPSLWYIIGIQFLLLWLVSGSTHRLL
compound,measurement,setting,value
"Cc1ccc(C)c(-c2cc(C(F)(F)F)nn2-c2ccc(S(N)(=O)=O)cc2)c1 [2,5-dimethyl-celecoxib]",effect on vascular Kv7 channels,[1],potent activator
same,effect on KCNQ currents at −20 mV holding voltage,"[2]; rat ASMCs, 10 μM",effective as an activator
same,reduction of MeCh-induced airway constriction,"[3]; 10 μM, 230 nM MeCh",23%
same,bronchorelaxant action when XE991 is included,[3],not significantly reduced
same,anti-cancer activity,[4],stronger anti-cancer activity than celecoxib itself
same,effect on vascular L-type Ca^2+ channels,[5],inhibitor
O=C1c2ccccc2C(Cc2ccncc2)(Cc2ccncc2)c2ccccc21 [XE991],effect on ASMC Kv7 currents,[6]; celecoxib 10 μM at −20 mV,complete suppression
same,effect on KCNQ currents in the presence of retigabine,"[2]; 1 μM, subsequent application after retigabine (with MeCh or formoterol)",completely abolished; also recorded: effectively abolished
same,effect on KCNQ currents at −20 mV holding voltage,"[2]; rat ASMCs, 10 μM",inhibited
Cc1ccc(-c2cc(C(F)(F)F)nn2-c2ccc(S(N)(=O)=O)cc2)cc1 [celecoxib],risk of cardiovascular (CV) events,[7],failed to demonstrate an increased CV risk
O=C(O)Cc1ccccc1Nc1c(Cl)cccc1Cl [diclofenac],effect on vascular Kv7 channels,[1],pronounced effects
same,risk of cardiovascular (CV) events,[7],significantly increased the risk of cardiovascular (CV) events
CCOC(=O)Nc1ccc(NCc2ccc(F)cc2)nc1N [flupirtine],increase of vascular Kv7 current,[1]; 10 μM,100%
same,plasma concentration achieved clinically,[8],about 12 μM
"COc1ccc(C[C@@H](C)NC[C@H](O)c2ccc(O)c(NC=O)c2)cc1.COc1ccc(C[C@@H](C)NC[C@H](O)c2ccc(O)c(NC=O)c2)cc1.O=C(O)/C=C/C(=O)O [formoterol, formoterol fumarate]",effect on KCNQ currents at −20 mV holding voltage,"[2]; rat ASMCs, 10 nM",did not enhance KCNQ currents
same,"final relaxation after thirty minutes, first application",[3]; [12],46±14%
same,"peak relaxation, first application",[3]; [12],68±10%
same,"final relaxation, second application",[3]; [13],32±6%
same,"peak relaxation, second application",[3]; [13],48±8%
same,maximum relaxation of airways constricted with MeCh,"[3]; at 1 μM, 230 nM MeCh",72±5%
same,time course of relaxation response,[3]; concentrations greater than or equal to 10 nM,noticeable time-dependent decline in the relaxation response
same,"final relaxation, acute exposure of the same slices",[3]; [14],34±6%
same,"peak relaxation, acute exposure of the same slices",[3]; [14],59±4%
same,relaxation of histamine-constricted asthmatic human airway,[9],18%
NCCc1c[nH]cn1 [histamine],effect on ASMC Kv7 currents,[6]; 30 μM,significantly suppressed
CC(C)NCC(O)c1ccc(O)c(O)c1 (stereo not shown) [isoproterenol],effect on KCNQ currents at −20 mV holding voltage,"[2]; rat ASMCs, 100 nM",ineffective in enhancement of KCNQ currents
O=C1N(c2ccccc2)c2ccccc2C1(Cc1ccncc1)Cc1ccncc1 [linopirdine],mean arterial pressure (MAP),[10],opposite effects
same,mesenteric vascular resistance (MVR),[10],opposite effects
same,effect on ASMC Kv7 currents,[6]; celecoxib 10 μM at −20 mV,complete suppression
CC(=O)OC(C)C[N+](C)(C)C (stereo not shown) [methacholine],effect on ASMC Kv7 currents,"[6]; 100 nM, −20 mV",completely suppressed
same,reduction of KCNQ currents at −20 mV,"[2]; rat ASMCs, 230 nM, n=7",55.1±6.2%
same,EC50,"[3]; rat PCLS, 100 nM to 1 μM, Hill fit, n=5, read-out: EC50 of airway constriction",248 ± 49 nM
same,Hill coefficient of airway constriction,"[3]; rat PCLS, n=5",1.6±0.2
same,maximal constriction,"[3]; rat PCLS, n=5",81±7%
CCOC(=O)Nc1ccc(NCc2ccc(F)cc2)cc1N [retigabine],reduction of MeCh-induced airway constriction,"[3]; 10 μM, 230 nM MeCh",about 31%
same,relaxation when applied alone,"[3]; 10 μM, 230 nM MeCh",45.7±4.9%
same,EC50,"[3]; Rattus norvegicus, read-out: EC50 of relaxation of pre-constricted airways",3600 ± 300 nM
same,maximum relaxation,[3]; pre-constricted thirty minutes with 230 nM MeCh,61±9%
same,effect on saline control animals,[11],no apparent effect
CS(=O)(=O)c1ccc(C2=C(c3ccccc3)C(=O)OC2)cc1 [rofecoxib],effect on vascular Kv7 channels,[1],does not exhibit either effect
same,risk of cardiovascular (CV) events,[7],significantly increased the risk of cardiovascular (CV) events
same,effect on vascular L-type Ca^2+ channels,[5],does not exhibit either effect
zinc pyrithione,effect on KCNQ currents at −20 mV holding voltage,"[2]; rat ASMCs, 100 nM",enhanced
same,threshold of KCNQ channel activation,"[2]; voltage step protocol, retigabine 10 μM, ZnPyr 100 nM",shifted the threshold of channel activation to more negative voltages
same,reduction of MeCh-induced airway constriction,"[3]; 1 μM, 230 nM MeCh, relative to vehicle",21%
same,bronchorelaxant action when XE991 is included,[3],suppressed or prevented
